Source: ChEMBL document CHEMBL1201862, “PubChem BioAssay data set” (2004)
Calls of active or inactive are those of the source.

Legend:
[1] = biological target: T1, Tyrosine-protein phosphatase non-receptor type 7 (Homo sapiens, UniProt P35236); format: functional
T1 sequence (P35236 whole entry): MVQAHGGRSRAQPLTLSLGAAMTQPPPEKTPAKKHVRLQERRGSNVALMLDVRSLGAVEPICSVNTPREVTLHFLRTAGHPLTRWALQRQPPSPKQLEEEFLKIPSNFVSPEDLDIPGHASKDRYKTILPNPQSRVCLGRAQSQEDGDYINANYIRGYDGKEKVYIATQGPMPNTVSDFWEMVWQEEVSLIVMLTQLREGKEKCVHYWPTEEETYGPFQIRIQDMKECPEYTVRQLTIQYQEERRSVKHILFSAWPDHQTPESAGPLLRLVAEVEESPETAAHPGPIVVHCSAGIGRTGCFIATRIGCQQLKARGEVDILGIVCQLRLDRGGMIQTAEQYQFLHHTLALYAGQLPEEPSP

[2] = biological target: Heat shock 70 kDa protein 1A (Homo sapiens, UniProt P0DMV8); assay: inhibition of Hsp70 binding activity – biochemical, fluorescence polarization, SAR follow-up (AID 1072)
[3] = biological target: T2, Dual specificity protein phosphatase 6 (Rattus norvegicus, UniProt Q64346);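 further: in vitro confirmatory secondary MKP-3 assay designed to detect irreversible or slow-binding inhibitors; recombinant His-tagged rat MKP-3 acting on the substrate OMFP; inhibitor potency from reduced phosphatase rate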
T2 sequence (Q64346 whole entry): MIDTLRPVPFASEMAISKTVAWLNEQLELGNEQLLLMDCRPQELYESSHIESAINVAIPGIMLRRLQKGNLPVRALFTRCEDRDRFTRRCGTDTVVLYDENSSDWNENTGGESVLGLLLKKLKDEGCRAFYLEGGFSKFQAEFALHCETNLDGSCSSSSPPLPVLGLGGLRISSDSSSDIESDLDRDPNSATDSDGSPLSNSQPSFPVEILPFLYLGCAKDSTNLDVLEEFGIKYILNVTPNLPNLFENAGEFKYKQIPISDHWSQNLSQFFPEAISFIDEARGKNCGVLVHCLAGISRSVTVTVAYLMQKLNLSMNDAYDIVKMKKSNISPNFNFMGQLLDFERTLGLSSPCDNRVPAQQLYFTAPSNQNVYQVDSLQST

[4] = biological target: Heat shock cognate 71 kDa protein (Homo sapiens, UniProt P11142); assay: In Vitro Hsc70 Dose Response Fluorescence Polarization Assay. [Related pubchem assays: 1072 ]
[5] = biological target: Glyceraldehyde-3-phosphate dehydrogenase (Homo sapiens, UniProt P04406)
[6] = biological target: Heat shock protein HSP 90-alpha (Homo sapiens, UniProt P07900); format: functional, organism-based
[7] = RKO cell viability reduction, dose response, CellTiter-Glo luminescence (AID 1117322); format: functional
[8] = SNU-C1 cell viability reduction, dose response, CellTiter-Glo luminescence (AID 1117323); format: functional, cell-based
[9] = HCT116 cell viability decrease, GSK3B pretreatment – CellTiter-Glo, IC50, dose response (AID 1117339); format: functional; details: HCT-116
[10] = biological target: Phospholipase A2 (Homo sapiens, UniProt P04054); format: functional;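 further: confirmatory dose-response counterscreen on phospholipase A2, testing hits that came from an ultra-high-throughput screen for ATG4B inhibitors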
[11] = glucagon-like peptide-1 release potency in STC-1, concentration-response, half-maximal inhibitory concentration in the STC-1 line (AID 1117345); format: functional, cell-based
[12] = Reduced DLD-1 viability, concentration-response, CellTiter-Glo luminescence (AID 1117352); format: functional
[13] = biological target: T3, Cysteine protease ATG4B (Homo sapiens, UniProt Q9Y4P1); format: functional;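 further: Fluorescence-based dose-response confirmation assay measuring inhibition of ATG4B activity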
T3 sequence (Q9Y4P1 whole entry): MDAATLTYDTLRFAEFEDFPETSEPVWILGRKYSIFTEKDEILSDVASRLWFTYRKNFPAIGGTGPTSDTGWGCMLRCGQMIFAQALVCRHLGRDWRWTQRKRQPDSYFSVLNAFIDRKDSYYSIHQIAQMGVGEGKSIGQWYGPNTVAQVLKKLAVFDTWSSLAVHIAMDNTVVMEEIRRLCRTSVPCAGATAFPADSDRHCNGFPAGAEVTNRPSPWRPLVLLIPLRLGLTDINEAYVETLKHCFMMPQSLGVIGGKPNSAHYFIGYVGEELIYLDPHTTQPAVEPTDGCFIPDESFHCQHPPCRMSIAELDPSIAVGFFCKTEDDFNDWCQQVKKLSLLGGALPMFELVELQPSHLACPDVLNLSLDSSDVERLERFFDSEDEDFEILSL

[14] = Potency on glucagon-like peptide 1 release, dose-response in NCI-H716 cell line, half maximal inhibitory concentration (AID 1117344); format: functional, cell-based
[15] = cytotoxicity toward Colo320 cells – cell-based, CellTiter-Glo luminescence, IC50, dose response (AID 1117334); format: functional; details: COLO 320
[16] = cytotoxicity toward HCT116 cells – cell-based, CellTiter-Glo luminescence, IC50, dose response (AID 1117332); format: functional; details: HCT-116
[17] = biological target: Voltage-gated inwardly rectifying potassium channel KCNH2 (Homo sapiens, UniProt Q12809); details: Potency;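 further: confirmatory quantitative high-throughput screen measuring inhibition of hERG channel activity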
[18] = biological target: Cytochrome P450 2D6 (Homo sapiens, UniProt P10635); assay: qHTS Assay for Inhibitors and Substrates of Cytochrome P450 2D6. [Related pubchem assays: 410 ]; format: ADME; details: read-out: Potency
[19] = biological target: Fatty acid synthase (Homo sapiens, UniProt P49327); assay: inhibition of human FAS-TE enzyme activity – biochemical, kinetic fluorescence intensity, dose response (AID 624326); format: functional;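 further: rate of fluorescence rise from hydrolysis of a fluorogenic O-methyl fluorescein ester substrate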
[20] = CellTiter-Glo luminescence survival assay, SW480 colon tumor line, concentration-response curve, half-maximal inhibitory concentration (AID 1117338); format: functional
[21] = alpha-synuclein stem-loop luciferase translation blockers – H4 neuroglioma cells, luminescence, confirmation (AID 1988); format: functional, cell-based
[22] = luciferase reporter signal suppression in cells – H4 neuroglioma cells, luminescence, dose response (AID 1990); format: functional, cell-based
[23] = cells; format: functional, cell-based
[24] = alpha-synuclein stem-loop translation blockers – luminescence, H4 neuroglioblastoma cells, dose confirmation, confirmation (AID 2454); format: functional, cell-based;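 further: H4 neuroglioblastoma cells carrying an alpha-synuclein 5'UTR luciferase reporter; potency for inhibition of the luciferase signal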
[25] = luciferase reporter signal reduction – luminescence, H4-C neuroglioblastoma cells, dose response (AID 2458); format: functional, cell-based;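 further: H4 neuroglioblastoma cells stably carrying a luciferase reporter gene fusion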
[26] = biological target: T4, Streptokinase A (Streptococcus pyogenes serotype M1, UniProt P10520); assay: viability-normalized secreted streptokinase activity reduction – plasminogen activation absorbance, OD405, dose response (AID 1914); format: functional, Streptococcus pyogenes M1 GAS;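 further: secreted streptokinase activity via plasminogen activation per viability signal from cell pellet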
T4 sequence (P10520 whole entry): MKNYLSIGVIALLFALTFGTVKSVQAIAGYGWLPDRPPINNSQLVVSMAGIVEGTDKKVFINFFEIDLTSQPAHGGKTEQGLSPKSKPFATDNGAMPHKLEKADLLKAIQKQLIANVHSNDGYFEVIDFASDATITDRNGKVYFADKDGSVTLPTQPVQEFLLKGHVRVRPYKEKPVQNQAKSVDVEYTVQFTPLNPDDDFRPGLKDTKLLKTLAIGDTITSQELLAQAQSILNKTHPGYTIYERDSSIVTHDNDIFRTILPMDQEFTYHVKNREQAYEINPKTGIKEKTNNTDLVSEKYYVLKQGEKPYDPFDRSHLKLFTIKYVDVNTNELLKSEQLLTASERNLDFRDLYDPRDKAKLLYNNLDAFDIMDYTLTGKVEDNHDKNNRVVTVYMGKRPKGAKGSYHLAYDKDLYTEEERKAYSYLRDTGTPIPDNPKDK

[27] = system: Streptococcus; assay: Luminescence Microorganism-Based Dose Response Follow up to Identify Compounds Cytotoxic to Streptococcus. [Related pubchem assays: 1677 (Project Summary), 1915, 1914, 1902 (Retest at Dose), 1900 (Counter Screen), 1662 (Primary HTS)]; format: functional, organism-based
[28] = system: Streptococcus sp. 'group A'; assay: Streptococcus pyogenes SK(-)GAS viability under kanamycin – luminescence, BacTiterGlo, confirmation, counter-screen for streptokinase expression inhibitor project, dose response (AID 1900); format: functional, organism-based
[29] = system: Streptococcus; assay: GAS UMAA2166 growth inhibition – luminescence, BacTiterGlo, counter-screen for streptokinase expression inhibitor project, dose response (AID 1915); format: functional, organism-based;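 further: potency for reduction of bacterial viability or growth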
[30] = non-specific 3'UTR reporter inhibition in Clone20-Shn3RL – cell-based, Renilla luciferase, cherry-picked, counter-screen for Shn3 inhibitor project, dose response (AID 624133); format: functional
[31] = reduction of Shn3 3'UTR-driven luciferase in osteoblasts – cell-based, Clone20 osteoblasts, firefly luciferase, cherry-picked, dose response (AID 624132); format: functional;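 further: firefly luciferase luminescence from reporter carrying the Shn3 3'UTR in osteoblasts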
[32] = loss of viability in HepG2 cells – cell-based, CellTiter-Glo, cherry-picked, cytotoxicity control for Shn3 inhibitor project, dose response (AID 624134); format: functional
[33] = biological target: Protein Wnt-3a (Mus musculus, UniProt P27467); assay: antagonism of Wnt3a pathway luciferase reporter – Wnt-LIGHT cells, luminescence, selectivity assay for Gli-SUFU antagonist project, dose response (AID 651570); format: functional; details: read-out: IC50_Mean;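 further: Wnt-LIGHT reporter cells stimulated with conditioned medium from Wnt3a-producing cells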
[34] = biological target: Vasopressin V1a receptor (Homo sapiens, UniProt P37288); assay: Counterscreen for Oxytocin Receptor (OXTR) agonists: Fluorescence-based cell-based high throughput dose response assay to identify agonists of the vasopressin 1 receptor (V1R). [Related pubchem assays: 2435 (Primary screen (OXTR agonists in singlicate)), 434991 (Counterscreen (V1R agonists in triplicate)), 2482 (Summary (OXTR agonists)) …; format: functional
[35] = biological target: Oxytocin receptor (Homo sapiens, UniProt P30559); assay: Fluorescence-based cell-based high throughput dose response assay for agonists of the Oxytocin Receptor (OXTR). [Related pubchem assays: 2435 (Primary screen (OXTR agonists in singlicate)), 434991 (Counterscreen (V1R agonists in triplicate)), 2482 (Summary (OXTR agonists)), 434963 (Confirmation screen (OXTR agonists in triplicate))]; format: functional

Sequence of Heat shock 70 kDa protein 1A (P0DMV8 whole entry): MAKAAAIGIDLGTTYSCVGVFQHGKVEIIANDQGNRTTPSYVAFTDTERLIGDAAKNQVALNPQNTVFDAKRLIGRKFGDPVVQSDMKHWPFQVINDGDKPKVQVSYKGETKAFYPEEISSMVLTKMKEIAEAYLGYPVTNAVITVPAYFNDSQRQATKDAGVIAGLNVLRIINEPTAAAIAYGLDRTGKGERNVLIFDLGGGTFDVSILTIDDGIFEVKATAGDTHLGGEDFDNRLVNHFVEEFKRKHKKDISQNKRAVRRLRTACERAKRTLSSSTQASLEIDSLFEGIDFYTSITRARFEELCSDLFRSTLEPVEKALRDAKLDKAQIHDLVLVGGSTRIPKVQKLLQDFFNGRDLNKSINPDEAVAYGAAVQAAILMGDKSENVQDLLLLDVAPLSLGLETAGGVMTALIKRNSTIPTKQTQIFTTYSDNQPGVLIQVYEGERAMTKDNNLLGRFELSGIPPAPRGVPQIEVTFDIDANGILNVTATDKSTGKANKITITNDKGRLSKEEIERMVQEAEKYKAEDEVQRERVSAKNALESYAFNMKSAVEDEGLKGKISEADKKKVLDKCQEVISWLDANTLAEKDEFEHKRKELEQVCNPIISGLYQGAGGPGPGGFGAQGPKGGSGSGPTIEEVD
Sequence of Fatty acid synthase (P49327 whole entry): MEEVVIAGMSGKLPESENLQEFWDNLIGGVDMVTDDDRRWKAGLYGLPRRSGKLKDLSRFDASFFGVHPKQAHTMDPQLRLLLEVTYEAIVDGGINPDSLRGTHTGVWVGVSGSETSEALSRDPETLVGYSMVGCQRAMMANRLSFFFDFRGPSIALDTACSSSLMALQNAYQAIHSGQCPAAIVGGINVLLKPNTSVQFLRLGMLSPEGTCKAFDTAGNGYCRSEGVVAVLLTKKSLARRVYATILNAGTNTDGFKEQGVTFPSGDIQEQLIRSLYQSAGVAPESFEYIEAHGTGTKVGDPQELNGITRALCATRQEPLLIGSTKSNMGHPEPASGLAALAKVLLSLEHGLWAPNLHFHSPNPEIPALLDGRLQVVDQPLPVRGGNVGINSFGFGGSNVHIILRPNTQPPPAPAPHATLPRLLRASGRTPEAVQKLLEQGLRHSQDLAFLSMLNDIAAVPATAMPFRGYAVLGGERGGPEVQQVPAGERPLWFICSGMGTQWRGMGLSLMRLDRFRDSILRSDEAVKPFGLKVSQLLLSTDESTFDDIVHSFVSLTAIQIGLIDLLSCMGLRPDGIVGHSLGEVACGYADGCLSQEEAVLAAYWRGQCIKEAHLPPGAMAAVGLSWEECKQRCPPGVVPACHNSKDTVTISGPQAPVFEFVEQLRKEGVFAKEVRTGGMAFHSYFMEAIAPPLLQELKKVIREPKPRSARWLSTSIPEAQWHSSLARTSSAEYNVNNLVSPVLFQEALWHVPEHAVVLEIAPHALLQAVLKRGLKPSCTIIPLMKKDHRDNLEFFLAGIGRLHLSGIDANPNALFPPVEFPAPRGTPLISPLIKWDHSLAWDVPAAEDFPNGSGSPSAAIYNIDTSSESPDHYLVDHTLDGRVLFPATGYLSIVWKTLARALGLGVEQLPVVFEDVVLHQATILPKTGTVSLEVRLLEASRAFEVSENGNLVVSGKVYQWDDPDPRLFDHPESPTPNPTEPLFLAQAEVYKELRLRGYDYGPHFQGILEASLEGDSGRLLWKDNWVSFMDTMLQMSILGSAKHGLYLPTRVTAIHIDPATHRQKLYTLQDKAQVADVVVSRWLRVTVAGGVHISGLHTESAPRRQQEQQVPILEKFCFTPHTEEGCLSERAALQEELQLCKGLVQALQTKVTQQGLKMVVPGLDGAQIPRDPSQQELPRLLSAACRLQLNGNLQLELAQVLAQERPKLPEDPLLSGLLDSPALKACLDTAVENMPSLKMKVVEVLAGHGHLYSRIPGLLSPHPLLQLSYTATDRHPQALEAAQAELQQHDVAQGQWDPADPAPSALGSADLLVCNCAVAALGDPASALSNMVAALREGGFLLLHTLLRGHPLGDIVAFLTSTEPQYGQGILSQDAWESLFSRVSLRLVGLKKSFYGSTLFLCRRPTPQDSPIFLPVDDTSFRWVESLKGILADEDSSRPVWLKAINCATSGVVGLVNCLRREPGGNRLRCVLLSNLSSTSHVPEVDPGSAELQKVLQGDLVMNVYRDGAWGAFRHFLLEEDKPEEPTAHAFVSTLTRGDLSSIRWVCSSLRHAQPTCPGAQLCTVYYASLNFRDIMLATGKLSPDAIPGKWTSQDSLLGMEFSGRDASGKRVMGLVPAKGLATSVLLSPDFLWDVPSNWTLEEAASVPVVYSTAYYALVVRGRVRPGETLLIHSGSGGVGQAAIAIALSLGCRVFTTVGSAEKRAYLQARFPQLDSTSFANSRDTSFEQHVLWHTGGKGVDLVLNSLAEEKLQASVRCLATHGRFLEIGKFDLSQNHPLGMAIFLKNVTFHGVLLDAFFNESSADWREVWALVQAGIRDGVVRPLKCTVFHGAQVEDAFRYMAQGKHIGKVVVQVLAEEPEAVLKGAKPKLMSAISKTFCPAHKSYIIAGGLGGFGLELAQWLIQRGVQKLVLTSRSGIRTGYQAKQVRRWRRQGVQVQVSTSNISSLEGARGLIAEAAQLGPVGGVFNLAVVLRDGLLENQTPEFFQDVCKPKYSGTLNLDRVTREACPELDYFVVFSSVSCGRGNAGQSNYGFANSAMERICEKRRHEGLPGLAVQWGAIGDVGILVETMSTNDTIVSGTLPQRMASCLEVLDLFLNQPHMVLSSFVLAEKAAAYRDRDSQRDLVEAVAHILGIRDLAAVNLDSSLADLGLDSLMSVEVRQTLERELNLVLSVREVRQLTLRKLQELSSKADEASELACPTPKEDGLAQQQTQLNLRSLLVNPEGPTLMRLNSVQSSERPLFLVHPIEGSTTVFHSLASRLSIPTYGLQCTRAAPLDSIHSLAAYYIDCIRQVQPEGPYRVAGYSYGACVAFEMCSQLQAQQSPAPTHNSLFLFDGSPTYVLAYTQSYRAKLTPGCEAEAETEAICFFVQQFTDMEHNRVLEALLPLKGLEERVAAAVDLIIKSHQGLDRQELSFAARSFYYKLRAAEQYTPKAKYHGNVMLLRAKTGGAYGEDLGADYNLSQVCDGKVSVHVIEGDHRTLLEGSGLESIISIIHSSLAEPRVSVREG
Sequence of Phospholipase A2 (P04054 whole entry): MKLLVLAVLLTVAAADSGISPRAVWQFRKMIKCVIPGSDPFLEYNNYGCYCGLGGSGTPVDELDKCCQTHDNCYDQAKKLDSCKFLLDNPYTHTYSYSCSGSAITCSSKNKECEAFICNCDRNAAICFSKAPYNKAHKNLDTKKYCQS
Sequence of Heat shock cognate 71 kDa protein (P11142 whole entry): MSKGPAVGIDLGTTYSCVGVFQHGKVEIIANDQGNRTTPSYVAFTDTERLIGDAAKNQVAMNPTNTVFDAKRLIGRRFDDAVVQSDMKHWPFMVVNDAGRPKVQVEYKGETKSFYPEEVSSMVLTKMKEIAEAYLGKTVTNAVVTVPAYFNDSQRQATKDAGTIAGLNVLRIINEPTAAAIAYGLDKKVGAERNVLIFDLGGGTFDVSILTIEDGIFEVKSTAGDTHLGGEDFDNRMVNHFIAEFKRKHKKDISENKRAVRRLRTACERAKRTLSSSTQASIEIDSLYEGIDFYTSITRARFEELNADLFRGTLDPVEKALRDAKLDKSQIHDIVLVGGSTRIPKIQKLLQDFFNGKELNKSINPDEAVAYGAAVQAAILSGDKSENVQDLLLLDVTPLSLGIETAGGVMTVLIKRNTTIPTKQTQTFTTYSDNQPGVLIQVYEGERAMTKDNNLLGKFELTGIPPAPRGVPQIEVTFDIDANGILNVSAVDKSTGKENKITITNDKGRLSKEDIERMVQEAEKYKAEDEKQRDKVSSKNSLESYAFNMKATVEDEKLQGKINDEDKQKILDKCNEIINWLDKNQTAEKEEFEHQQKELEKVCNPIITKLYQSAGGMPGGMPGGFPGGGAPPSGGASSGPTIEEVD
Sequence of Vasopressin V1a receptor (P37288 whole entry): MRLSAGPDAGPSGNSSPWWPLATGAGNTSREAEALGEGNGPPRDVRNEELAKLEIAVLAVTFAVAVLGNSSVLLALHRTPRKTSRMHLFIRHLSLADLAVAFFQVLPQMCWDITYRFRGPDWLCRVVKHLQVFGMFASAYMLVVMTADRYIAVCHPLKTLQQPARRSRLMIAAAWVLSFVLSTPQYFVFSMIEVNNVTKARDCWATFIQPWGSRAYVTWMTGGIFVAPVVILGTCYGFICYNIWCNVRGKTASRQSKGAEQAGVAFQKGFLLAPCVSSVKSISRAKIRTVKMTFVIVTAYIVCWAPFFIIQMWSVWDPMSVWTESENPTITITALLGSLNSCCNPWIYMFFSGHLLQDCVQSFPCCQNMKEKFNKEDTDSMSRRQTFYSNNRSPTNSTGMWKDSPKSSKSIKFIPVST
Sequence of Protein Wnt-3a (P27467 whole entry): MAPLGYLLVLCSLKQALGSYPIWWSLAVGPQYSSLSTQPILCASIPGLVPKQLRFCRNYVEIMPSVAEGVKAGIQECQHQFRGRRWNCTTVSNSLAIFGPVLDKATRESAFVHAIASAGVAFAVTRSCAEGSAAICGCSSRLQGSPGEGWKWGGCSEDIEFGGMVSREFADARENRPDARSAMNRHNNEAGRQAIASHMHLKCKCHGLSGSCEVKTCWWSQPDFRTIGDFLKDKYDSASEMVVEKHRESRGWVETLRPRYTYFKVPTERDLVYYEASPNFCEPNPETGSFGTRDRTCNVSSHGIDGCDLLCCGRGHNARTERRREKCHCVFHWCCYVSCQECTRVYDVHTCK
Sequence of Glyceraldehyde-3-phosphate dehydrogenase (P04406 whole entry): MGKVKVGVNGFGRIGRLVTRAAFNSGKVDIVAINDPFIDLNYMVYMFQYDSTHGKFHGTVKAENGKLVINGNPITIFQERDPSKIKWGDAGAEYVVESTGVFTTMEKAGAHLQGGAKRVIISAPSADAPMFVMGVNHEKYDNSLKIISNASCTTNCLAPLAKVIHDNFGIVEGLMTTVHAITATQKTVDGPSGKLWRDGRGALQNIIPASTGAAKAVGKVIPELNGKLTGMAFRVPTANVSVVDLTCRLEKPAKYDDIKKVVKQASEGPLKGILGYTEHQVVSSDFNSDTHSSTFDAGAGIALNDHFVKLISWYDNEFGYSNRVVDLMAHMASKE

COC(=O)c1ccccc1OC(=O)c1ccc2c(c1)C1C=CCC1C(C(=O)O)N2 (stereo not given)
IC50 [1]: 2.8 µM (active)
IC50 [2]: 28 µM (active)
IC50 [3]: 17 µM (active)
IC50 [4]: 115 µM (active)
IC50 [5]: 93.6 µM (active)

Oc1ccc(Cl)cc1Sc1cc(Cl)ccc1O [FENTICLOR]
AC50 [6]: 4.11 µM (active)
IC50 [7]: 0.116 µM (active)
IC50 [8]: 1.85 µM (active)
IC50 [9]: 0.148 µM (active)
IC50 [10]: 15.2 µM (active)
IC50 [11]: > 20 µM (inactive)
IC50 [12]: 0.301 µM (active)
IC50 [13]: 11 µM (active)
IC50 [14]: 21.3 µM (inactive)
IC50 [15]: 0.075 µM (active)
IC50 [16]: 0.183 µM (active)
AC50 [17]: 31.6 µM (inconclusive)
AC50 [18]: 3.16 µM (inconclusive)
IC50 [19]: 3.52 µM (active)
IC50 [20]: 0.579 µM (active)

COc1ccc(C2NCc3ccc4c(c3-n3cccc32)OCO4)cc1O (stereo not given)
EC50 [21]: < 0.1 µM (active)
EC50 [22]: < 0.1 µM (active)
EC50 [23]: 5.44 µM (active)
EC50 [24]: > 12 µM (not active)
EC50 [25]: 2.6 µM (active)

O=C(NC(=S)Nc1ccccc1N1CCCC1)c1ccccc1Br
EC50 [26]: 6.61 µM (active)
EC50 [27]: > 500 µM (not active)
EC50 [28]: 32.3 µM (active)
EC50 [29]: > 150 µM (not active)

COc1ccc(CNc2[nH]cnc3c4ccccc4nc2-3)cc1
AC50 [30]: 5.89 µM (active)
AC50 [31]: 4.19 µM (active)
AC50 [32]: 28 µM (active)
IC50 [33]: 12.4 µM (active)
EC50 [34]: > 29.9 µM (not active)
EC50 [35]: 27.4 µM (not active)
